Measured values as given in patent US20180280377A1, “Imidazo[4,5-c]quinolin-2-one Compounds and Their Use in Treating Cancer” (ASTRAZENECA AB, priority 2015, published 2018).

Assays:
ATM = target: T1, ATM (Homo sapiens, UniProt Q13315); experiment: ATM cellular potency assay (pATM Ser1981 in irradiated HT29 cells); type: cell-based; details: 1 h compound, X-ray irradiation, pATM (Ser1981); Table 2; read-out: Assay a) ATM Cell IC50
T1 construct: endogenous in cells; host or cells: HT29 cells (ECACC #85061109)
Experimental: (§1) The following assays were used to measure the effects of the compounds of the present invention: a) ATM cellular potency assay; b) PI3K cellular potency assay; c) mTOR cellular potency assay; d) ATR cellular potency assay. During the description of the assays, generally: • i. […] IC50 values were calculated using a smart fitting model in Genedata.
Most ATM molecules in the cell are rapidly phosphorylated on this site after doses of radiation as low as 0.5 Gy, and binding of a phosphospecific antibody is detectable after the introduction of only a few DNA double-strand breaks in the cell.
The rationale of the pATM assay is to identify inhibitors of ATM in cells. HT29 cells are incubated with test compounds for 1 h prior to X-ray-irradiation. 1 h later the cells are fixed and stained for pATM (Ser1981). The fluorescence is read on the arrayscan imaging platform.
The following morning compounds of Formula (I) in 100% DMSO were added to assay plates by acoustic dispensing. After 1 h incubation at 37° C. and 5% CO2, plates (up to 6 at a time) were irradiated using the X-RAD 320 instrument (PXi) with equivalent to 600 cGy. Plates were returned to the incubator for a further 1 h. Then cells were fixed by adding 20 μl of 3.7% formaldehyde in PBS solution and incubating for 20 minutes at r.t. before being washed with 50μl/well PBS, using a Biotek EL405 plate washer. Then 20 μl of 0.1% Triton X100 in PBS was added and incubated for 20 minutes at r.t., to permeabalise cells. Then the plates were washed once with 50 μl/well PBS, using a Biotek EL405 plate washer.
After 1 h incubation at r.t., the plates were washed three times with 50 μl/well PBS, using a Biotek EL405 plate washer, and plates were sealed and kept in PBS at 4° C. until read. Plates were read using an ArrayScan VTI instrument, using an XF53 filter with 10× objective.

ATR = target: T2, ATR (Homo sapiens, UniProt Q13535); experiment: ATR cellular potency assay (pChk1 Ser345 in HT29 cells after 4NQO); type: cell-based; details: pChk1 (Ser 345); Table 2; read-out: Assay b) ATR Cell IC50
T2 construct: endogenous in cells; host or cells: HT29 cells (ECACC #85061109)
Experimental: as §1
ATR is a PI3-kinase-related kinase which phosphorylates multiple substrates on serine or threonine residues in response to DNA damage during or replication blocks. Chk1, a downstream protein kinase of ATR, plays a key role in DNA damage checkpoint control. Activation of Chk1 involves phosphorylation of Ser317 and Ser345 (the latter regarded as the preferential target for phosphorylation/activation by ATR).
The following morning compound of Formula (I) in 100% DMSO were added to assay plates by acoustic dispensing. After 1 h incubation at 37° C. and 5% CO2, 40 nl of 3 mM 4NQO in 100% DMSO was added to all wells by acoustic dispensing, except minimum control wells which were left untreated with 4NQO to generate a null response control. Plates were returned to the incubator for a further 1 h. Then cells were fixed by adding 20 μl of 3.7% formaldehyde in PBS solution and incubating for 20 mins at r.t. Then […] of 0.1% Triton X100 in PBS was added and incubated for 10 minutes at r.t., to permeabalise cells. Then the plates were washed once with […] PBS, using a Biotek EL405 plate washer.
After 2 h incubation at r.t., the plates were washed three times with […] PBS, using a Biotek EL405 plate washer, and plates were then sealed with black plate seals until read. Plates were read using an ArrayScan VTI instrument, using an XF53 filter with 10× objective.

T2 sequence (Q13535 whole entry): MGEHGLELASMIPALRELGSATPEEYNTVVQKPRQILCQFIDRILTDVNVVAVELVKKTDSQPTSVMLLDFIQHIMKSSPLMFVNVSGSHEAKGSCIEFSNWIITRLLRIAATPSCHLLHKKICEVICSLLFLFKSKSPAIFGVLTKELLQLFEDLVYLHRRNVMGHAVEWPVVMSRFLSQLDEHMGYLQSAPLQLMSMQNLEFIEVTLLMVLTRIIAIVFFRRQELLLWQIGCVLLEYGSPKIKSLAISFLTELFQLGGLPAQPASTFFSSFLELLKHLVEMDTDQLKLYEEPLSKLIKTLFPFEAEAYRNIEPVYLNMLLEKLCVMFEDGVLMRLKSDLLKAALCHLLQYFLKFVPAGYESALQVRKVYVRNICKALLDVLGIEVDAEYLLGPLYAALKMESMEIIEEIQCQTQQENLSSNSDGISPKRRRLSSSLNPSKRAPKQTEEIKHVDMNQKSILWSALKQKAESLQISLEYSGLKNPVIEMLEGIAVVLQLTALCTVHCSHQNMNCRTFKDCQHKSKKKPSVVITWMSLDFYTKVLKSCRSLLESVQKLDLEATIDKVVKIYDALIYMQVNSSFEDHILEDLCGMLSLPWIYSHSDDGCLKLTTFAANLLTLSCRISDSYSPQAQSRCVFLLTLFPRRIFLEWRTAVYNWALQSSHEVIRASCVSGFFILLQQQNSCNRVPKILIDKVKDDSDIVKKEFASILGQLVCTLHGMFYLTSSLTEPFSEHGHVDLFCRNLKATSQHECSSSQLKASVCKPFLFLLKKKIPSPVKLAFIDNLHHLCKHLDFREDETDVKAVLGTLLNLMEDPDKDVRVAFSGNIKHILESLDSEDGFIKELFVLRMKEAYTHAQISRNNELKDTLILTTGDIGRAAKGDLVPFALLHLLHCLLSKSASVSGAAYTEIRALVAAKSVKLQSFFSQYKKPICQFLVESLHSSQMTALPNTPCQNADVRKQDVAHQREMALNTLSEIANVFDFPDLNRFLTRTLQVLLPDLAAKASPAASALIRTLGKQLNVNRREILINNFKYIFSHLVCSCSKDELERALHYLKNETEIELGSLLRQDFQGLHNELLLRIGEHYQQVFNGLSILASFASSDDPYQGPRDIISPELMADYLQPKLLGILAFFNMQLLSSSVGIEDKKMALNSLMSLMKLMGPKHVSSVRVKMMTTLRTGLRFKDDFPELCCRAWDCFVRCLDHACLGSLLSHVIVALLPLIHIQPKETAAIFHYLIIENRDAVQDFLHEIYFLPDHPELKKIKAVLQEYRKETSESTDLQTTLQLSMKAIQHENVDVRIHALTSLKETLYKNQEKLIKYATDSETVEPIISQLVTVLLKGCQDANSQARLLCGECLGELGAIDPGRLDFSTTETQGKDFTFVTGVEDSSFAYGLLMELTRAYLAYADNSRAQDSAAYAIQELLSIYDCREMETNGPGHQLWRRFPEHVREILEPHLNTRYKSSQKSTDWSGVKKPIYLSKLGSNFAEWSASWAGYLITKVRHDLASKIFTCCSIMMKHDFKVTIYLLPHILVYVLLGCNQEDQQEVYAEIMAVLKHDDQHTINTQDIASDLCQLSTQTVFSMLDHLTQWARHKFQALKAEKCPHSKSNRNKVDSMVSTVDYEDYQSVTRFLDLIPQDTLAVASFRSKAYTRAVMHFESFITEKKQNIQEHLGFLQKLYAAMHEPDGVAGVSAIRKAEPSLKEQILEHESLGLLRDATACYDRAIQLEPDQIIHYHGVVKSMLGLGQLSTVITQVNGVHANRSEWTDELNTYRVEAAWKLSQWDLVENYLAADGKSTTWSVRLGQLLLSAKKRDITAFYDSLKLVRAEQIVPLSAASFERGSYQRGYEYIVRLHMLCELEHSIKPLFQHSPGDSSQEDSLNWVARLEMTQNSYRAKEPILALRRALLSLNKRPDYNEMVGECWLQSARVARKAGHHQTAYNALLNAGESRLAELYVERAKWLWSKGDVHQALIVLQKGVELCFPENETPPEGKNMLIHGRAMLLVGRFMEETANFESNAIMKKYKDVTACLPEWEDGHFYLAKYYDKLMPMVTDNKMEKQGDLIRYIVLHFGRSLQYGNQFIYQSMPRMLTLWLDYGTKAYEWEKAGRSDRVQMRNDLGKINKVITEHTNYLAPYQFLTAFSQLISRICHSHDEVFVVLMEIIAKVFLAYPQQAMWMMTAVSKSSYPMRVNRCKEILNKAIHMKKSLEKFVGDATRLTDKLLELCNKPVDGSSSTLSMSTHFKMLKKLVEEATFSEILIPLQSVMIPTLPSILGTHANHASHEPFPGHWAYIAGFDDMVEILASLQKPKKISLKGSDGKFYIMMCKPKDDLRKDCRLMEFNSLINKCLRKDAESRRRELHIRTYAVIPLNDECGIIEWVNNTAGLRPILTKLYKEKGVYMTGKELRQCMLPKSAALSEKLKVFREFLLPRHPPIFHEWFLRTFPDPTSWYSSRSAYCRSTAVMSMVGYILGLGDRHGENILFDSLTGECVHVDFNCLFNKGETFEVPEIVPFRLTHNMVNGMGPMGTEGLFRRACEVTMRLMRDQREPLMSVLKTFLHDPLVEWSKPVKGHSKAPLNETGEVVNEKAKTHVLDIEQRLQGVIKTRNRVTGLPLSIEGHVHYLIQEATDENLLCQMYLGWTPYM
T2 sequence (Q8WXE1 whole entry partner): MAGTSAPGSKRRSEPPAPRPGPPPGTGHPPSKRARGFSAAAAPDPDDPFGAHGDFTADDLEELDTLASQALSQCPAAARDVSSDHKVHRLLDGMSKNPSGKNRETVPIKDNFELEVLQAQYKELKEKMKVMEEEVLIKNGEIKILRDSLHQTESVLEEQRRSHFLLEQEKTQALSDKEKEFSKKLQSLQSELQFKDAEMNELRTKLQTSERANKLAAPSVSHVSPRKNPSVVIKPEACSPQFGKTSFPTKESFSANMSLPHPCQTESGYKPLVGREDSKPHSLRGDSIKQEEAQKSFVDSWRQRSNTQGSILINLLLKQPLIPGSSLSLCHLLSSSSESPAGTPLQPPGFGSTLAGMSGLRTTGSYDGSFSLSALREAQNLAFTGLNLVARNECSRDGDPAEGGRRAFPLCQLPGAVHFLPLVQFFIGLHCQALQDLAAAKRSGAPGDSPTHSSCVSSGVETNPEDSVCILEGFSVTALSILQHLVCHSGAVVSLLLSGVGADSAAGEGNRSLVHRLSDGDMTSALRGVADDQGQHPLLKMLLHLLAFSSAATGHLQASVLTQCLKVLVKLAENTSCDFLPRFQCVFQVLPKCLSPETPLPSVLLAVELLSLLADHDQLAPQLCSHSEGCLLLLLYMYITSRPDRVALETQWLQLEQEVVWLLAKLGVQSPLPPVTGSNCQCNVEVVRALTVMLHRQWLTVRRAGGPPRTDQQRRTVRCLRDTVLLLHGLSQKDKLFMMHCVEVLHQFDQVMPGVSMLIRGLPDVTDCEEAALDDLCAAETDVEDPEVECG

Row | Compound | IC50 (ATM) [µM] | IC50 (ATR) [µM]
1 | CN(C)C1CCN(c2ccc(-c3cc4c(cc3F)ncc3c4n([C@H]4CCCOC4)c(=O)n3C)cn2)CC1 [Example 41, 8-[6-[4-(dimethylamino)-1-piperidyl]-3-pyridyl]-7-fluoro-3-methyl-1-[(3S)-tetrahydropyran-3-yl]imidazo[4,5-c]quinolin-2-one] | 0.00202 | > 30
2 | CNC1CCN(c2ccc(-c3ccc4ncc5c(c4c3)n(C3CCOCC3)c(=O)n5C)cn2)CC1 [Example 61, 3-methyl-8-[6-[4-(methylamino)-1-piperidyl]-3-pyridyl]-1-tetrahydropyran-4-yl-imidazo[4,5-c]quinolin-2-one] | 0.000753 | > 25.5
3 | CN(C)C1CN(c2ccc(-c3ccc4ncc5c(c4c3)n(C3CCC3)c(=O)n5C)cn2)C1 [Example 26, 1-cyclobutyl-8-[6-[3-(dimethylamino)azetidin-1-yl]-3-pyridyl]-3-methyl-imidazo[4,5-c]quinolin-2-one] | 0.00929 | > 20.1
4 | CN(C)[C@H]1CCN(c2ccc(-c3ccc4ncc5c(c4c3)n([C@H]3CCCOC3)c(=O)n5C)cn2)C1 [Example 17] | 0.0137 | > 30
5 | CO[C@@H]1CCC[C@H](n2c(=O)n(C)c3cnc4ccc(-c5ccc(N6CC(N(C)C)C6)nc5)cc4c32)C1 (single isomer, unassigned) [Example 50, 8-[6-[3-(dimethylamino)azetidin-1-yl]-3-pyridyl]-1-[cis-3-methoxycyclohexyl]-3-methyl-imidazo[4,5-c]quinolin-2-one] | 0.0167 | 1.97
6 | CO[C@H]1CC[C@@H](n2c(=O)n(C)c3cnc4ccc(-c5ccc(N6CC[C@@H](N(C)C)C6)nc5)cc4c32)CC1 (single isomer, unassigned) [Example 44] | 0.000889 | 1.12
7 | CO[C@H]1C[C@H](n2c(=O)n(C)c3cnc4ccc(-c5ccc(N6CC[C@@H](N(C)C)C6)nc5)cc4c32)C1 [Example 11] | 0.00077 | 1.08
8 | 8-[6-[4-(dimethylamino)-1-piperidyl]-3-pyridyl-3-methyl-1-tetrahydropyran-4-yl-imidazo[4,5-c]quinolin-2-one [Example 39] | 0.00269 | > 30
9 | CO[C@H]1CCC[C@H](n2c(=O)n(C)c3cnc4ccc(-c5ccc(N6CC[C@@H](N(C)C)C6)nc5)cc4c32)C1 (single isomer, unassigned) [Example 52] | 0.000112 | 0.0616
10 | CO[C@H]1CCC[C@H](n2c(=O)n(C)c3cnc4ccc(-c5ccc(N6CC(N(C)C)C6)nc5)cc4c32)C1 (single isomer, unassigned) [Example 55, 8-[6-[3-(dimethylamino)azetidin-1-yl]-3-pyridyl]-1-[trans-3-methoxycyclohexyl]-3-methyl-imidazo[4,5-c]quinolin-2-one] | 0.00338 | 0.804
11 | CO[C@H]1CC[C@H](n2c(=O)n(C)c3cnc4ccc(-c5ccc(N6CC(N(C)C)C6)nc5)cc4c32)CC1 [Example 25, 8-[6-[3-(dimethylamino)azetidin-1-yl]-3-pyridyl]-1-(trans-4-methoxycyclohexyl)-3-methyl-imidazo[4,5-c]quinolin-2-one] | 0.00661 | 2.52
12 | CO[C@H]1CCC[C@H](n2c(=O)n(C)c3cnc4ccc(-c5ccc(N6CCC(N(C)C)CC6)nc5)cc4c32)C1 (single isomer, unassigned) [Example 53, 8-[6-[4-(dimethylamino)-1-piperidyl]-3-pyridyl]-1-[trans-3-methoxycyclohexyl]-3-methyl-imidazo[4,5-c]quinolin-2-one] | 0.000269 | > 21.4
13 | CN(C)[C@@H]1CCN(c2ccc(-c3ccc4ncc5c(c4c3)n([C@H]3CCCOC3)c(=O)n5C)cn2)C1 [Example 9] | 0.000842 | 2.48
14 | CNC1CCN(c2ccc(-c3ccc4ncc5c(c4c3)n([C@@H]3CCCOC3)c(=O)n5C)cn2)CC1 [Example 58, 3-methyl-8-[6-[4-(methylamino)-1-piperidyl]-3-pyridyl]-1-[(3R)-tetrahydropyran-3-yl]imidazo[4,5-c]quinolin-2-one] | 0.00225 | > 21.8
15 | CO[C@@H]1CCC[C@H](n2c(=O)n(C)c3cnc4ccc(-c5ccc(N6CC[C@@H](N(C)C)C6)nc5)cc4c32)C1 (single isomer, unassigned) [Example 48] | 0.00234 | 0.201
16 | CO[C@H]1CC[C@H](n2c(=O)n(C)c3cnc4cc(F)c(-c5ccc(N6CC(N(C)C)C6)nc5)cc4c32)C1 (single isomer, unassigned) [Example 30, 8-[6-[3-(dimethylamino)azetidin-1-yl]-3-pyridyl]-7-fluoro-1-[trans-3-methoxycyclopently]-3-methyl-imidazo[4,5-c]quinolin-2-one] | 0.0249 | > 30
17 | CO[C@H]1CC[C@H](n2c(=O)n(C)c3cnc4cc(F)c(-c5ccc(N6CC(N(C)C)C6)nc5)cc4c32)C1 (single isomer, unassigned) [Example 29, 8-[6-[3-(dimethylamino)azetidin-1-yl]-3-pyridyl]-7-fluoro-1-[trans-3-methoxycyclopentyl]-3-methyl-imidazo[4,5-c]quinolin-2-one] | 0.00968 | > 30
18 | CO[C@H]1CCC[C@H](n2c(=O)n(C)c3cnc4ccc(-c5ccc(N6CC(N(C)C)C6)nc5)cc4c32)C1 (single isomer, unassigned) [Example 56, 8-[6-[3-(dimethylamino)azetidin-1-yl]-3-pyridyl]-1-[trans-3-methoxycyclohexyl]-3-methyl-imidazo[4,5-c]quinolin-2-one] | 0.0157 | 1.19
19 | CO[C@H]1CC[C@H](n2c(=O)n(C)c3cnc4ccc(-c5ccc(N6CC(N(C)C)C6)nc5)cc4c32)C1 (single isomer, unassigned) [Example 23, 8-[6-[3-(dimethylamino)azetidin-1-yl]-3-pyridyl]-1-[trans-3-methoxycyclopentyl]-3-methyl-imidazo[4,5-c]quinolin-2-one] | 0.0228 | > 24
20 | CN(C)C1CCN(c2ccc(-c3ccc4ncc5c(c4c3)n(C3COC3)c(=O)n5C)cn2)CC1 [Example 38, 8-[6-[4-(dimethylamino)-1-piperidyl]-3-pyridyl]-3-methyl-1-(oxetan-3-yl)imidazo[4,5-c]quinolin-2-one] | 0.00391 | > 30
21 | CO[C@H]1C[C@@H](n2c(=O)n(C)c3cnc4ccc(-c5ccc(N6CC[C@H](N(C)C)C6)nc5)cc4c32)C1 [Example 18] | 0.0127 | 17.5
22 | CO[C@H]1C[C@@H](n2c(=O)n(C)c3cnc4ccc(-c5ccc(N6CC[C@@H](N(C)C)C6)nc5)cc4c32)C1 [Example 10] | 0.000752 | 3.21
23 | CN(C)[C@H]1CCN(c2ccc(-c3ccc4ncc5c(c4c3)n([C@@H]3CCCOC3)c(=O)n5C)cn2)C1 [Example 16] | 0.0186 | > 22.3
24 | CO[C@H]1CC[C@H](n2c(=O)n(C)c3cnc4ccc(-c5ccc(N6CC[C@@H](N(C)C)C6)nc5)cc4c32)C1 [Example 5, 8-[6-[(3R)-3-(Dimethylamino)pyrrolidin-1-yl]-3-pyridyl]-1-[(1S,3S)-3-methoxycyclopentyl]-3-methyl-imidazo[4,5-c]quinolin-2-one] | 0.000312 | 0.284
25 | CO[C@H]1CCC[C@H](n2c(=O)n(C)c3cnc4ccc(-c5ccc(N6CC[C@@H](N(C)C)C6)nc5)cc4c32)C1 (single isomer, unassigned) [Example 51] | 0.000589 | 0.0906
26 | CO[C@@H]1CCC[C@H](n2c(=O)n(C)c3cnc4ccc(-c5ccc(N6CC(N(C)C)C6)nc5)cc4c32)C1 (single isomer, unassigned) [Example 49, 8-[6-[3-(dimethylamino)azetidin-1-yl]-3-pyridyl]-1-[cis-3-methoxycyclohexyl]-3-methyl-imidazo[4,5-c]quinoline-2-one] | 0.0153 | 1.91
